In paper PMC7756582, “Prodrugs of γ‐Alkyl‐Modified Nucleoside Triphosphates: Improved Inhibition of HIV Reverse Transcriptase” (Angewandte Chemie (International Ed. in English), 2020):

Molecular target: T1, human DNA polymerase α (Homo sapiens, UniProt P09884)
T1 construct: purchased Chimerx
T1 sequence (P09884 1-1462): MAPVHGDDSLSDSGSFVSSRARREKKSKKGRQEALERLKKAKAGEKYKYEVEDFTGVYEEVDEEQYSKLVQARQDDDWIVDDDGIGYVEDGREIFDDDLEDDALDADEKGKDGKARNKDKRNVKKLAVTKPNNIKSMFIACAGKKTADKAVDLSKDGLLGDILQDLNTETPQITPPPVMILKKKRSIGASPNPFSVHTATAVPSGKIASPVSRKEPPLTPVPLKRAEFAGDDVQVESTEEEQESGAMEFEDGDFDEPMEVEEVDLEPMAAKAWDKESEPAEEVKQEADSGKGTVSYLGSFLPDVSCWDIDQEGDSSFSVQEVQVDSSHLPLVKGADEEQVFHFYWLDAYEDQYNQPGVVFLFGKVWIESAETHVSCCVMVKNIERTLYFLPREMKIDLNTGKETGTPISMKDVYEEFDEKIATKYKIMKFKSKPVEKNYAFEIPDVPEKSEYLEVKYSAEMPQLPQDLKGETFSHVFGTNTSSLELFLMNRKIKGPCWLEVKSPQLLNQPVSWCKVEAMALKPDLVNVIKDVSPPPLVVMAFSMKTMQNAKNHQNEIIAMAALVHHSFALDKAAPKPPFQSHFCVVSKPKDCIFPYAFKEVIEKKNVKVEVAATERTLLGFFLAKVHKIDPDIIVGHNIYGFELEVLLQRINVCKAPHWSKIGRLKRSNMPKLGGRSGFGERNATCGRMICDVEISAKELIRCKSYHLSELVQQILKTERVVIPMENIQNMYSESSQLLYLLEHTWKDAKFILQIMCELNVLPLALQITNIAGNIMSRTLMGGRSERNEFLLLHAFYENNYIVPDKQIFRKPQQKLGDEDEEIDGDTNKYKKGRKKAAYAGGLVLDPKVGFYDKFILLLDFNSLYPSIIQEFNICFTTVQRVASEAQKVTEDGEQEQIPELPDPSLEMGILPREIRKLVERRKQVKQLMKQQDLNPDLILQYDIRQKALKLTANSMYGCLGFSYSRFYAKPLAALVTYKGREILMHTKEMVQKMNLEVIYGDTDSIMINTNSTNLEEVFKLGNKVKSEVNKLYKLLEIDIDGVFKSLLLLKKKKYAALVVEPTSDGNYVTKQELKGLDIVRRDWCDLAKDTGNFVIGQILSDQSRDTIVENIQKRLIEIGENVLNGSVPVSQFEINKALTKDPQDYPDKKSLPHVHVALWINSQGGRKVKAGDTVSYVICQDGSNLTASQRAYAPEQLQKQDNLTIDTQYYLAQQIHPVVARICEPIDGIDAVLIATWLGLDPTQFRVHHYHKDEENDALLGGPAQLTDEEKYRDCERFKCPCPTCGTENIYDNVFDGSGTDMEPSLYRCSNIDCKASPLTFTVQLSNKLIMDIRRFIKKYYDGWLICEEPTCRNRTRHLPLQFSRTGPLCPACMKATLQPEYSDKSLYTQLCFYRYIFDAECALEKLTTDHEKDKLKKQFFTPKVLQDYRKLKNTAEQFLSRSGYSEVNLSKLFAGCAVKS
Assay: Primer extension assay with human DNA polymerase α
Assay type: biochemical
Conditions: dNTPs 250 μM, Pol α 4 U, 60 min
Method: Two different set‐ups have been used. First, a mixture of dATP, dCTP, dGTP, and γ‐alkyl‐TTP (N*) or ‐d4TTP (T*) was used as a mixture. The results obtained from these experiments were compared to those in which just γ‐alkyl‐TTP (N) or d4TTP (T) was used. In each experiment a primer extension without added polymerase (negative control, ‐ lane) and an experiment in which all four canonical NTPs were added (positive control, +lane) were used as controls.
Anti-HIV activity assay: Inhibition of HIV-1(IIIB)- and HIV-2(ROD)-induced cytopathicity in wild-type CEM/0 and thymidine kinase-deficient CEM/TK- cell cultures was measured in microtiter 96-well plates containing ~3·105 CEM cells/mL infected with 100 CCID50 of HIV per milliliter and containing appropriate dilutions of the test compounds. After 4−5 days of incubation at 37 °C in a CO2-controlled humidified atmosphere, CEM giant (syncytium) cell formation was examined microscopically. The EC50 (50% effective concentration) was defined as the compound concentration required to inhibit HIV-induced giant cell formation by 50%. […]
2) For HIV- RT assay: The final assay solution (10 µL) consists of 50 mM Tris-HCl (pH 8.6 at 22 °C), 10 mM MgCl2, 40mM KCl, dNTPs 66 µM, HIV RT 6 U, Hybrid 0.32 µM in a reaction volume of 10 µL, incubated 37 °C for 15 min, 80 °C for 3 min; 50 mA, 45w for 4 h. […] The result was visualized by fluorescence imaging. […]

## Cc1cn(C2C=CC(COP(=O)(O)OP(=O)(O)OP(=O)(O)O)O2)c(=O)[nH]c1=O (stereo not shown) [2 t, d4TTP, reference compound]
  primer extension by DNA polymerase α (substrate properties): substrate
